Test results reported in the supplement of paper PMC10307832.

Tests used:
Assay in all cases: relative viability (nuclei count vs DMSO), 5 days (fraction); higher = more cells survive
[1] = compound: C[C@@]1(C(=O)Nc2ccc(F)nc2)CCCN1c1nc(Nc2cc(C3CC3)n[nH]2)c2cccn2n1 + COc1cc2c(Oc3ccc(NC(=O)C4(C(=O)Nc5ccc(F)cc5)CC4)cc3F)ccnc2cc1OCCCN1CCOCC1 [Foretinib] (partner 0.25 µM)
Summary of the method: (§1)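 Relative viability is defined as nuclei in treated wells over nuclei in vehicle wells. Duplicate plates were run and medians reported. Lung cancer cell lines in 1536-well plates were dosed by pin tool one day after seeding, with one drug or with a fixed anchor-drug dose plus five library-drug doses (not always all listed) in √10 steps, and nuclei were counted after 5 days.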

Motesanib + Dasatinib = compound: CC1(C)CNc2cc(NC(=O)c3cccnc3NCc3ccncc3)ccc21 [Motesanib] + Cc1nc(Nc2ncc(C(=O)Nc3c(C)cccc3Cl)s2)cc(N2CCN(CCO)CC2)n1 [Dasatinib] (partner 0.075 µM)
Summary of the method: as §1

Motesanib + Bortezomib = compound: CC1(C)CNc2cc(NC(=O)c3cccnc3NCc3ccncc3)ccc21 [Motesanib] + CC(C)C[C@H](NC(=O)[C@H](Cc1ccccc1)NC(=O)c1cnccn1)B(O)O [Bortezomib] (partner 0.002 µM)
Summary of the method: as §1

[2] = compound: C[C@@]1(C(=O)Nc2ccc(F)nc2)CCCN1c1nc(Nc2cc(C3CC3)n[nH]2)c2cccn2n1 + CC(=O)Nc1cccc(-n2c(=O)n(C3CC3)c(=O)c3c(Nc4ccc(I)cc4F)n(C)c(=O)c(C)c32)c1 [Trametinib] (partner 0.02 µM)
Summary of the method: as §1

| Cell Line | relative viability ([1]; first compound 0.04 µM) | relative viability ([1]; first compound 0.1265 µM) | relative viability ([1]; first compound 0.4 µM) | relative viability ([1]; first compound 1.265 µM) | relative viability (Motesanib + Dasatinib; first compound 0.03162 µM) | relative viability (Motesanib + Dasatinib; first compound 0.1 µM) | relative viability (Motesanib + Dasatinib; first compound 0.3162 µM) | relative viability (Motesanib + Dasatinib; first compound 1 µM) | relative viability (Motesanib + Bortezomib; first compound 0.01 µM) | relative viability (Motesanib + Bortezomib; first compound 0.03162 µM) | relative viability (Motesanib + Bortezomib; first compound 0.1 µM) | relative viability (Motesanib + Bortezomib; first compound 0.3162 µM) | relative viability (Motesanib + Bortezomib; first compound 1 µM) | relative viability ([2]; first compound 0.04 µM) | relative viability ([2]; first compound 0.1265 µM) | relative viability ([2]; first compound 0.4 µM) | relative viability ([2]; first compound 1.265 µM) | relative viability (Motesanib + Dasatinib; first compound 0.01 µM) |
| --- | --- | --- | --- | --- | --- | --- | --- | --- | --- | --- | --- | --- | --- | --- | --- | --- | --- | --- |
| NCI-H2405 | 0.866 | 0.818 | 0.742 | 0.77 | 0.196 | 0.232 | 0.283 | 0.208 | 0.907 | 0.925 | 0.96 | 0.998 | 1.04 | 0.461 | 0.382 | 0.353 | 0.381 |  |
| LCLC-97TM1 | 0.31 | 0.292 | 0.278 | 0.499 | 0.801 | 0.797 | 0.86 | 0.773 | 0.497 | 0.897 | 0.541 | 0.617 | 0.501 | 0.232 | 0.0949 | 0.0995 | 0.13 | 0.838 |
| NCI-H596 | 0.731 | 0.752 | 0.649 | 0.972 | 0.543 | 0.534 | 0.563 | 0.53 | 0.995 | 0.872 |  | 1.18 | 0.995 | 0.912 | 0.72 | 0.654 | 0.748 | 0.651 |
| NCI-H727 | 0.694 | 0.396 | 0.357 | 0.324 | 0.241 | 0.404 | 0.448 | 0.34 | 0.735 | 0.926 | 0.883 | 0.919 | 0.818 | 0.312 | 0.283 | 0.267 | 0.221 | 0.39 |
| H3255 | 1 | 1.1 | 0.883 | 0.787 | 0.38 | 0.473 | 0.302 | 0.338 | 0.714 | 0.733 | 0.637 | 0.936 | 0.799 | 0.543 | 0.573 | 0.494 | 0.628 | 0.304 |
| NCI-H1437 | 1.31 | 1.2 | 1.04 | 1.11 | 0.22 | 0.383 | 0.575 | 0.405 | 0.368 | 0.525 | 0.434 | 0.626 | 0.615 | 0.404 | 0.3 | 0.277 | 0.277 | 0.266 |
| LU99A | 0.602 | 0.467 | 0.478 | 0.432 | 0.453 | 0.681 | 0.606 | 0.524 | 1.12 | 1.37 | 0.921 | 1.22 | 1.19 | 0.411 | 0.352 | 0.399 | 0.504 | 0.636 |
| HCC-827 | 1.03 | 1.14 | 1.06 | 1.2 | 0.307 | 0.293 | 0.274 | 0.228 | 0.962 | 1.1 | 1.07 | 1.03 | 1.15 | 0.518 | 0.499 | 0.45 | 0.557 | 0.308 |
| HCC-366 | 0.957 | 0.922 | 0.9 | 1.07 | 0.553 | 0.552 | 0.631 | 0.808 | 1.06 | 1 | 1.06 | 0.997 | 1.09 | 0.4 | 0.197 | 0.194 | 0.178 | 0.666 |
| BEN | 0.918 | 0.649 | 0.678 | 0.536 | 0.342 | 0.333 | 0.325 | 0.343 | 0.696 | 0.793 | 0.869 | 0.861 | 0.935 | 1.07 | 1.01 | 1.04 | 0.979 | 0.286 |
| NCI-H23 | 0.591 | 0.539 | 0.622 | 0.914 | 0.737 | 0.662 | 0.892 | 0.746 | 1.06 | 0.766 |  | 1.21 | 1.16 | 0.233 | 0.199 | 0.178 | 0.252 | 0.881 |
| 201T | 0.747 | 0.629 | 0.353 | 0.573 | 0.519 | 0.559 | 0.595 | 0.535 | 1.05 | 1.07 | 1.08 | 1.17 | 1.08 | 0.718 | 0.663 | 0.637 | 0.676 | 0.575 |
| NCI-H460 | 1.06 | 0.939 | 1.03 | 0.87 | 0.481 | 0.525 | 0.63 | 0.626 | 1.09 | 1.18 | 1.08 | 1.25 | 1.1 | 0.159 | 0.0315 | 0.0726 | 0.0967 | 0.406 |
| NCI-H661 | 1.04 | 1.03 | 1.06 | 0.936 | 0.842 | 0.833 | 0.977 | 0.861 | 0.795 | 0.767 | 0.765 | 0.849 | 1.04 | 0.605 | 0.55 | 0.591 | 0.555 | 0.818 |
| HCC-15 | 0.906 | 0.485 | 0.614 | 0.686 | 0.53 | 0.648 | 0.758 | 0.723 | 0.97 | 0.968 | 0.886 | 1.16 | 1.07 | 0.237 | 0.204 | 0.19 | 0.264 | 0.648 |
| LCLC-103H | 0.597 | 0.491 | 0.422 | 0.637 | 0.444 | 0.44 | 0.504 | 0.52 |  | 1.02 | 1.16 | 1.03 | 1.07 | 0.668 | 0.613 | 0.62 | 0.69 | 0.432 |
| NCI-H441 | 0.631 | 0.46 | 0.599 | 0.707 | 0.627 | 0.604 | 0.613 | 0.642 | 0.542 | 0.47 | 0.434 | 0.644 | 0.583 | 0.23 | 0.164 | 0.21 | 0.211 | 0.594 |
| EPLC-272H | 0.57 |  | 0.558 | 0.796 | 0.405 |  | 0.421 | 0.287 | 0.858 | 0.832 | 0.925 | 0.601 | 1 | 0.266 | 0.252 | 0.234 | 0.231 | 0.344 |
